Converted amounts (≈) assume the structure as drawn.
What was measured:
Format in all cases: cell-based
[1] = test system: Pasteurella multocida PM 10775 (080130003051, BRD field isolate); experiment: MIC, broth-microdilution (CLSI VET01-A4), strain PM 10775; conditions: Pasteurella multocida strain PM 10775, broth-microdilution; unit assumed
Summary of the method: (§1)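 Growth inhibition is scored visually on a doubling dilution series. The reported MIC corresponds to the lowest concentration free of turbidity, with results assessed under CLSI VET01-S3.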

[2] = test system: Mannheimia haemolytica MH 13093 (XB0472-6014.1, BRD field isolate); experiment: MIC, broth-microdilution (CLSI VET01-A4), strain MH 13093; conditions: Mannheimia haemolytica strain MH 13093, broth-microdilution; unit assumed
Summary of the method: as §1

[3] = test system: Mannheimia haemolytica MH 12587 (1071, BRD field isolate, macrolide-resistance: erm+, E+); experiment: MIC, broth-microdilution (CLSI VET01-A4), strain MH 12587; conditions: Mannheimia haemolytica strain MH 12587, broth-microdilution; unit assumed
Summary of the method: as §1

[4] = test system: Mannheimia haemolytica MH 6374 (ATCC 33396, reference strain); experiment: MIC, broth-microdilution (CLSI VET01-A4), strain MH 6374; conditions: Mannheimia haemolytica strain MH 6374, broth-microdilution; unit assumed
Summary of the method: as §1

[5] = test system: Mannheimia haemolytica MH 10720 (154, BRD field isolate); experiment: MIC, broth-microdilution (CLSI VET01-A4), strain MH 10720; conditions: Mannheimia haemolytica strain MH 10720, broth-microdilution; unit assumed
Summary of the method: as §1

[6] = test system: Pasteurella multocida PM 12080 (IV102277-0093, BRD field isolate); experiment: MIC, broth-microdilution (CLSI VET01-A4), strain PM 12080; conditions: Pasteurella multocida strain PM 12080, broth-microdilution; unit assumed
Summary of the method: as §1

[7] = test system: Mannheimia haemolytica MH 6357 (M7/2, reference strain, cattle infection strain); experiment: MIC, broth-microdilution (CLSI VET01-A4), strain MH 6357; conditions: Mannheimia haemolytica strain MH 6357, broth-microdilution; unit assumed
Summary of the method: as §1

[8] = test system: Mannheimia haemolytica MH 13065 (XB0446-6003.9, BRD field isolate); experiment: MIC, broth-microdilution (CLSI VET01-A4), strain MH 13065; conditions: Mannheimia haemolytica strain MH 13065, broth-microdilution; unit assumed
Summary of the method: as §1

[9] = test system: Pasteurella multocida PM 6391 (ATCC 43137, reference strain); experiment: MIC, broth-microdilution (CLSI VET01-A4), strain PM 6391; conditions: Pasteurella multocida strain PM 6391, broth-microdilution; unit assumed
Summary of the method: as §1

[10] = test system: Pasteurella multocida PM 6267 (P 2225 (L386), reference strain, mouse infection strain); experiment: MIC, broth-microdilution (CLSI VET01-A4), strain PM 6267; conditions: Pasteurella multocida strain PM 6267, broth-microdilution; unit assumed
Summary of the method: as §1

MIC PM 10775 [1] [µg/mL] | MIC PM 12080 [6] [µg/mL] | MIC PM 6391 [9] [µg/mL] | MIC PM 6267 [10] [µg/mL] | Structure (SMILES) | MIC MH 13093 [2] [µg/mL] | MIC MH 12587 [3] [µg/mL] | MIC MH 6374 [4] [µg/mL] | MIC MH 10720 [5] [µg/mL] | MIC MH 6357 [7] [µg/mL] | MIC MH 13065 [8] [µg/mL]
0.4 (≈ 0.78 µM) | 0.8 (≈ 1.56 µM) | 0.4 (≈ 0.78 µM) | 1.6 (≈ 3.12 µM) | CSC(C)(C)[C@H](NC(=O)c1ccc(C#Cc2ccc(CNCc3ncc(C)o3)s2)cc1)C(=O)NO [Compound 310] | 1.6 (≈ 3.12 µM) | 3.1 (≈ 6.05 µM) | 0.8 (≈ 1.56 µM) | 0.4 (≈ 0.78 µM) | 1.6 (≈ 3.12 µM) | 1.6 (≈ 3.12 µM)
≤ 0.1 | 1.6 (≈ 3.54 µM) | 3.1 (≈ 6.86 µM) | 0.8 (≈ 1.77 µM) | CC[C@H](C)[C@H](NC(=O)c1ccc(C#Cc2ccc(CNCCCOC)cc2)cc1)C(=O)NO [Compound 177] | 6.3 (≈ 14 µM) | 12.5 (≈ 27.7 µM) | 6.3 (≈ 14 µM) | 1.6 (≈ 3.54 µM) | 3.1 (≈ 6.86 µM) | 6.3 (≈ 14 µM)
≤ 0.1 | 0.4 (≈ 0.786 µM) | 0.4 (≈ 0.786 µM) | 0.8 (≈ 1.57 µM) | CSC(C)(C)[C@H](NC(=O)c1ccc(C#Cc2ccc(CNCc3cccnc3)s2)cc1)C(=O)NO [Compound 306] | 0.8 (≈ 1.57 µM) | 3.1 (≈ 6.09 µM) | 0.8 (≈ 1.57 µM) | 0.2 (≈ 0.393 µM) | 0.8 (≈ 1.57 µM) | 0.8 (≈ 1.57 µM)
≤ 0.1 | 0.4 (≈ 0.852 µM) | 0.4 (≈ 0.852 µM) | 0.2 (≈ 0.426 µM) | Cc1ccc(CNCc2ccc(C#Cc3ccc(C(=O)N[C@H](C(=O)NO)C(C)C)cc3)cc2)cc1 [Compound 172] | 0.8 (≈ 1.7 µM) | 1.6 (≈ 3.41 µM) | 0.8 (≈ 1.7 µM) | 0.4 (≈ 0.852 µM) | 0.4 (≈ 0.852 µM) | 0.8 (≈ 1.7 µM)
≤ 0.1 | ≤ 0.1 | ≤ 0.1 | 0.2 (≈ 0.37 µM) | CC(C)([C@H](NC(=O)c1ccc(C#Cc2ccc(CNCc3ccccn3)s2)cc1)C(=O)NO)S(C)(=O)=O [Compound 320] | 0.4 (≈ 0.74 µM) | 0.8 (≈ 1.48 µM) | ≤ 0.1 | ≤ 0.1 | 0.2 (≈ 0.37 µM) | 0.2 (≈ 0.37 µM)
≤ 0.1 | 0.2 (≈ 0.409 µM) | 0.8 (≈ 1.64 µM) | 0.8 (≈ 1.64 µM) | CC(C)([C@H](NC(=O)c1ccc(C#Cc2ccc(CNCC#N)s2)cc1)C(=O)NO)S(C)(=O)=O [Compound 318] | 1.6 (≈ 3.27 µM) | 1.6 (≈ 3.27 µM) | 0.8 (≈ 1.64 µM) | ≤ 0.1 | 0.4 (≈ 0.819 µM) | 0.8 (≈ 1.64 µM)
≤ 0.1 | 0.4 (≈ 0.894 µM) | 0.8 (≈ 1.79 µM) | 0.2 (≈ 0.447 µM) | CC[C@H](C)[C@H](NC(=O)c1ccc(C#Cc2ccc(CNC3CCCC3)cc2)cc1)C(=O)NO [Compound 196] | 12.5 (≈ 27.9 µM) | 12.5 (≈ 27.9 µM) | 12.5 (≈ 27.9 µM) | 1.6 (≈ 3.57 µM) | 6.3 (≈ 14.1 µM) | 6.3 (≈ 14.1 µM)
0.4 (≈ 0.921 µM) | 0.2 (≈ 0.46 µM) | ≤ 0.1 | 1.6 (≈ 3.68 µM) | CON=C(C)[C@H](NC(=O)c1ccc(C#Cc2ccc(CNC3CC3)cc2)cc1)C(=O)NO [Compound 378] | 0.8 (≈ 1.84 µM) | 0.2 (≈ 0.46 µM) | 0.8 (≈ 1.84 µM) | 0.4 (≈ 0.921 µM) | 0.8 (≈ 1.84 µM) | 0.8 (≈ 1.84 µM)
1.6 (≈ 3.67 µM) | 0.2 (≈ 0.458 µM) | 0.4 (≈ 0.916 µM) | 25 (≈ 57.3 µM) | CCCNCc1ccc(C#Cc2ccc(C(=O)N[C@H](C(=O)NO)C(C)=NOC)cc2)cc1 [Compound 387] | 3.1 (≈ 7.1 µM) | 1.6 (≈ 3.67 µM) | 6.3 (≈ 14.4 µM) | 3.1 (≈ 7.1 µM) | 6.3 (≈ 14.4 µM) | 6.3 (≈ 14.4 µM)

Structure (SMILES) | MIC PM 10775 [1] [µg/mL] | MIC PM 12080 [6] [µg/mL] | MIC PM 6391 [9] [µg/mL] | MIC PM 6267 [10] [µg/mL] | MIC MH 13093 [2] [µg/mL] | MIC MH 12587 [3] [µg/mL] | MIC MH 6374 [4] [µg/mL] | MIC MH 10720 [5] [µg/mL] | MIC MH 6357 [7] [µg/mL] | MIC MH 13065 [8] [µg/mL]
CC(C)([C@H](NC(=O)c1ccc(C#Cc2ccc(CNCc3ccccn3)cc2)cc1)C(=O)NO)S(C)(=O)=O [C.269] | ≤ 0.1 | ≤ 0.1 | ≤ 0.1 | ≤ 0.1 | 0.8 (≈ 1.5 µM) | 1.6 (≈ 2.99 µM) | 0.4 (≈ 0.748 µM) | ≤ 0.1 | 1.6 (≈ 2.99 µM) | 1.6 (≈ 2.99 µM)
